Measured values reported in patent US20210261527A1, “OGA INHIBITOR COMPOUNDS” (Janssen Pharmaceutica NV, priority 2018, published 2021).
Structures can show the parent of a compound that is named as a salt.

Experiments:
[1] = target: T1, recombinant human Meningioma Expressed Antigen 5 (MGEA5), also referred to as O-GlcNAcase (OGA) (Homo sapiens, UniProt O60502); assay: OGA biochemical assay (FM-GlcNAc hydrolysis, fluorescence); conditions: full length OGA 2 nM, FM-GlcNAc 100 uM, pH 7.2, 6 h at room temperature; for Emax: read-out: Enzymatic Emax (%); for IC50: read-out: Enzymatic hOGA, pIC50 (converted)
T1 construct: Full length OGA enzyme was purchased at OnGene (cat #TP322411); purchased OnGene (so in the source)
T1 sequence (O60502 1-916): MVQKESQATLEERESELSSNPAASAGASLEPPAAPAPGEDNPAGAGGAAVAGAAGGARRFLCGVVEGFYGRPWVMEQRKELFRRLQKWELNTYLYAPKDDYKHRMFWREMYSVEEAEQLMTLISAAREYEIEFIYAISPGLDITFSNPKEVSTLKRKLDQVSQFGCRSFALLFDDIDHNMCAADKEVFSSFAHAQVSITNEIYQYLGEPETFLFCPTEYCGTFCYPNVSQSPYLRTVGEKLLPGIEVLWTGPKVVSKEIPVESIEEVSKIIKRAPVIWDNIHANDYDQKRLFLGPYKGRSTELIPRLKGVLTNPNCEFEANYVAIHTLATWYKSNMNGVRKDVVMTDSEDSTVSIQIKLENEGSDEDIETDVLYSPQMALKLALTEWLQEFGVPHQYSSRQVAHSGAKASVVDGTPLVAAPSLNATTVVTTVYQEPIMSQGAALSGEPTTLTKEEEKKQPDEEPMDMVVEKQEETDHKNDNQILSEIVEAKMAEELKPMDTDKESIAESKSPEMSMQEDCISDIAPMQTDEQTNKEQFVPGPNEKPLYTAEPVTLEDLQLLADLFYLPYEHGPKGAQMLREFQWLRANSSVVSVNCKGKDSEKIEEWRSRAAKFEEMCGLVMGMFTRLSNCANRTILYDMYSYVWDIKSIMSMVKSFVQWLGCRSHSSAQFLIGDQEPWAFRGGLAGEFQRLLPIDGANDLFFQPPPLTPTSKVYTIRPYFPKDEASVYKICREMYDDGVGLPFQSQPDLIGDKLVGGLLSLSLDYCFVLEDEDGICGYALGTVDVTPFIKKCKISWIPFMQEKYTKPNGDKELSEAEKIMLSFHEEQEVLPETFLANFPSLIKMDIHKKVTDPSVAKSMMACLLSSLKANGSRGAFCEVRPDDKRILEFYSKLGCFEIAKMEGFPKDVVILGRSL
Source text: The assay is based on the inhibition of the hydrolysis of fluorescein mono-β-D-N-Acetyl-Glucosamine (FM-GlcNAc) (Mariappa et al. 2015, Biochem J 470:255) by the recombinant human Meningioma Expressed Antigen 5 (MGEA5), also referred to as O-GlcNAcase (OGA). The hydrolysis FM-GlcNAc (Marker Gene technologies, cat #M1485) results in the formation of β-D-N-glucosamineacetate and fluorescein. The fluorescence of the latter can be measured at excitation wavelength 485 nm and emission wavelength 538 nm. An increase in enzyme activity results in an increase in fluorescence signal. Full length OGA enzyme was purchased at OnGene (cat #TP322411). The enzyme was stored in 25 mM Tris.HCl, pH 7.3, 100 mM glycine, 10% glycerol at −20° C. Thiamet G and GlcNAcStatin were tested as reference compounds (Yuzwa et al. 2008 Nature Chemical Biology 4:483; Yuzwa et al. 2012 Nature Chemical Biology 8:393). The assay was performed in 200 mM Citrate/phosphate buffer supplemented with 0.005% Tween-20. 35.6 g Na2HPO4 2 H2O (Sigma, #C0759) were dissolved in 1 L water to obtain a 200 mM solution. 19.2 g citric acid (Merck, #1.06580) was dissolved in 1 L water to obtain a 100 mM solution. pH of the sodiumphosphate solution was adjusted with the citric acid solution to 7.2. The buffer to stop the reaction consists of a 500 mM Carbonate buffer, pH 11.0. 734 mg FM-GlcNAc were dissolved in 5.48 mL DMSO to obtain a 250 mM solution and was stored at −20° C. OGA was used at a 2 nM concentration and FM-GlcNAc at a 100 uM final concentration. Dilutions were prepared in assay buffer.
50 nl of a compound dissolved in DMSO was dispensed on Black Proxiplate™ 384 Plus Assay plates (Perkin Elmer, #6008269) and 3 μl fl-OGA enzyme mix added subsequently. Plates were pre-incubated for 60 min at room temperature and then 2 μl FM-GlcNAc substrate mix added. […] Plates were briefly centrifuged for 1 min at 1000 rpm and incubate at room temperature for 6 h. To stop the reaction 5 μl STOP buffer were added and plates centrifuge again 1 min at 1000 rpm. Fluorescence was quantified in the Thermo Scientific Fluoroskan Ascent or the PerkinElmer EnVision with excitation wavelength 485 nm and emission wavelength 538 nm.
For analysis a best-fit curve is fitted by a minimum sum of squares method. From this an IC50 value and Hill coefficient was obtained. High control (no inhibitor) and low control (saturating concentrations of standard inhibitor) were used to define the minimum and maximum values.

[2] = target: T2, hOGA in HEK293 cells inducible for P301L mutant human Tau (isoform 2N4R) (Homo sapiens, UniProt O60502); assay: OGA cellular assay (ICC detection of O-GlcNAcylated proteins); assay type: cell-based; conditions: 6 hours incubation; for EC50: O-GlcNAcylation intensity readout at 488 nm, read-out: Cellular hOGA, pEC50 (converted); for Emax: maximum = Thiamet G at 200 uM
T2 construct: endogenous in cells; host or cells: HEK293 cells inducible for P301L mutant human Tau (isoform 2N4R)
T2 sequence (O60502 1-916): T1 sequence (O60502 1-916)
Method: HEK293 cells inducible for P301L mutant human Tau (isoform 2N4R) were established at Janssen. Thiamet-G was used for both plate validation (high control) and as reference compound (reference EC50 assay validation). OGA inhibition is evaluated through the immunocytochemical (ICC) detection of O-GlcNAcylated proteins by the use of a monoclonal antibody (CTD110.6; Cell Signaling, #9875) detecting 0-GlcNAcylated residues as previously described (Dorfmueller et al. 2010 Chemistry & biology, 17:1250). Inhibition of OGA will result in an increase of O-GlcNAcylated protein levels resulting in an increased signal in the experiment. Cell nuclei are stained with Hoechst to give a cell culture quality control and a rough estimate of immediate compounds toxicity, if any. ICC pictures are imaged with a Perkin Elmer Opera Phenix plate microscope and quantified with the provided software Perkin Elmer Harmony 4.1.
Cells were propagated in DMEM high Glucose (Sigma, #D5796) following standard procedures. 2 days before the cell assay cells are split, counted and seeded in Poly-D-Lysine (PDL) coated 96-wells (Greiner, #655946) plate at a cell density of 12,000 cells per cm^2 (4,000 cells per well) in 100 μl of Assay Medium (Low Glucose medium is used to reduce basal levels of GlcNAcylation) (Park et al. 2014 The Journal of biological chemistry 289:13519). At the day of compound test medium from assay plates was removed and replenished with 90 μl of fresh Assay Medium. 10 μl of compounds at a 10fold final concentration were added to the wells. Plates were centrifuged shortly before incubation in the cell incubator for 6 hours. DMSO concentration was set to 0.2%. Medium is discarded by applying vacuum. For staining of cells medium was removed and cells washed once with 100 μl D-PBS (Sigma, #D8537). From next step onwards unless other stated assay volume was always 50 μl and incubation was performed without agitation and at room temperature. Cells were fixed in 50 μl of a 4% paraformaldehyde (PFA, Alpha aesar, #043368) PBS solution for 15 minutes at room temperature. […] Before analysis samples were washed 2 times manually for 5 minutes in ICC base buffer.
Imaging is performed using Perkin Elmer Phenix Opera using a water 20× objective and recording 9 fields per well. Intensity readout at 488 nm is used as a measure of O-GlcNAcylation level of total proteins in wells. To assess potential toxicity of compounds nuclei were counted using the Hoechst staining. IC50-values are calculated using parametric non-linear regression model fitting. As a maximum inhibition Thiamet G at a 200 uM concentration is present on each plate. In addition, a concentration response of Thiamet G is calculated on each plate.

Compound | Emax [1] [%] | IC50 [1] [nM] | EC50 [2] [nM] | Emax [2] [%] | melting point [°C]
Cc1cc(C[C@H]2CCCN([C@H](C)c3ccc4ccc(C)nc4c3)C2)cc(C)n1 (single isomer, unassigned) [Compound 3] | 101 | 53.7 | > 1000 | 34.8 | –
Cc1cc(C[C@H]2CCCN([C@@H](C)c3ccc4ccc(C)nc4c3)C2)cc(C)n1 (single isomer, unassigned) [Compound 2] | 60.8 | 7240 | – | – | –
Cc1cc(C[C@H]2CCCN([C@@H](C)c3cnc4cccnc4c3)C2)cc(C)n1 (single isomer, unassigned) [Compound 4] | 102 | 28.8 | 646 | 50.5 | –
Cc1cc(C[C@H]2CCCN(C(C)c3ccc4nc(O)cnc4c3)C2)cc(C)n1 (mixture of isomers) [Compound 10] | 101 | 107 | > 1000 | 11.2 | –
Cc1cc(C[C@H]2CCCN(Cc3ccc4cccnc4c3)C2)cc(C)n1 [Compound 1] | 95.8 | 288 | > 1000 | 33 | 152.83

Now from value to compound:

Emax [1] [%] | IC50 [1] [nM] | EC50 [2] [nM] | Emax [2] [%] | melting point [°C] | Compound
– | – | – | – | 262.69 | Cc1cc(C[C@H]2CCCN(C(C)c3ccc4cccnc4c3)C2)cc(C)n1 (mixture of isomers) (as salt: HCl) [Compound 9]
99.6 | 47.9 | – | 41.1 | – | Cc1cc(C[C@H]2CCCN(C(C)c3cc4ncccc4cn3)C2)cc(C)n1 (mixture of isomers) [Compound 6]
103 | 5.5 | 162 | 86.4 | – | Cc1cc(C[C@H]2CCCN([C@H](C)c3cnc4cccnc4c3)C2)cc(C)n1 (single isomer, unassigned) [Compound 5]
101 | 14.8 | 234 | 71.1 | – | Cc1cc(C[C@H]2CCCN(C(C)c3ccc4cccnc4n3)C2)cc(C)n1 (mixture of isomers) [Compound 7]
98.5 | 195 | > 1000 | 29.8 | – | Cc1cc(C[C@H]2CCCN(Cc3ccc4cccnc4n3)C2)cc(C)n1 [Compound 8]
